Measurements taken from patent publication US20250170248A1, “SMARCA DEGRADERS AND USES THEREOF” (Kymera Therapeutics, Inc., priority 2021, published 2025).

What was measured:
Assay type in all cases: cell-based
[1] = target: T1, SMARCA2 (Homo sapiens, UniProt P51531); assay: MSD SMARCA2 degradation in A549 cell line; conditions: for Dmax: A549, A549 cells; for Dmax / DC50: 24 h; for DC50: read-out: SMARCA2 MSD A549 degradation 24 h: Average external-Abs DC50
Method: Example 10. MSD SMARCA2 Degradation in A549 Cell Line
Cells were seeded into 96-well plates (A549 cells: 2×10^4 cells/well/100 ul media) and incubated overnight. The next day, 200 nL compound were added into the intermediate plate with Echo (Labcyte 550) from source plate containing a 3-fold serial dilution from top concentration of 1 mM. The culture medium was changed with 8 0ul of fresh medium and 80 μL of 2× compound solution was added into the well to make a final concentration of 1000 nM, 333.3 nM, 111.1 nM, 37.04 nM, 12.35 nM, 4.115 nM, 1.372 nM, 0.457 nM, 0.152 nM and 0 nM (DMSO). The wells were mixed and then incubated for 24 hours. The media was aspirated from the cultures and 60 ul pre-chilled PIPA lysis buffer (Boston BioProducts BP-115D) with protease/phosphatase inhibitor (Roche 05892791001/Roche 04906837001) was added into the well to lyze the cells for 20 minutes at 4° C. The MSD plate (L15XA) was coated with 40 uL cell lysate and incubated at 4° C. overnight. The next day, the plate was washed three times with TBST (CST #9997S), 150 ul/well. The MSD plates was blocked with 150 ul blocking buffer per well and shaked for 1 hr at RT, 600 rpm. The blocking buffer was 3% Blocker A (MSD, R93BA-4) in TBST. The MSD plate was washed three times with 150 uL/well of TBST and 25 ul/well of detection antibody (Rabbit anti-SMARCA2/BRM antibody, 100 μg/mL, ab223735) was added at final concentration of 1 μg/mL diluted in 1% Blocking buffer and shaken for 1 hour at RT, 600 rpm. The MSD plate was washed three times with 150 ul/well of TBST and 25 ul/well of SULFO-TAG anti-rabbit antibody (MSD, R32AB-1) was added at final concentration of 1 μg/ml diluted in 1% Blocking buffer and shaken for 1 hour at RT, 600 rpm. The MSD plate was washed three times with 150 uL/well of TBST and 150 ul/well of 2× MSD reading buffer diluted from 4× (MSD, R92TC-2) with water was added. Lastly, the MSD instrument was read.
The letter codes for SMARCA2 degradation potency (DC50) include: A (<10 nM), B (10-50 nM), C (>50-100 nM), and D (>100 nM). The letter codes for the percentage of SMARCA degradation after 24 hours (Dmax %) include: A (>90% degradation), B (>70-90% degradation), C (50-70% degradation), and D (<50% degradation).

[2] = target: T2, SMARCA4 (Homo sapiens, UniProt P51532); assay: SMARCA4 Western blot degradation in MV4-11 cells; conditions: 24 h; for Dmax: MV4-11, MV4-11 cells, read-out: SMARCA4 MSD MV411 degradation 24 h: average Dmax %; for DC50: MV4-11 cells, read-out: SMARCA4 MSD MV411 degradation 24 h: Mean external-Abs DC50
T2 construct: SMARCA2/SMARCA4 protein degradation selectivity in MV4-11 cells; endogenous in cells; host or cells: MV4-11
Method: Example 11. SMARCA2 and SMARCA4 Western Blot MV4-11 Degradation
Cells were seeded into 6-well plates (MV4-11:4×10^6 cells/well/1 ml) and 1 ml of 2× compound solution was added into the well to make the final concentration and the plates were mixed well and incubated for 24 hours (No cytotoxicity was observed). The cell were collected with media and spun at 3000 rpm for 5 minutes. The supernatant was aspirated and the well and the cells were washed with cold PBS once and combined for centrifugation again; the supernatant aspirated again. 200 uL pre-chilled RIPA lysis buffer (Boston BioProducts BP-115D) with protease/phosphatase inhibitor (Roche 05892791001/Roche 04906837001) was directly added into the tube to lyze the cells for 20 minutes on ice. The cell lysate were collected into EP tubes and spun at 13000 rpm for 20 minutes and 72 uL supernatant was transferred to a fresh EP tube containing 18 μL of 5× loading buffer (Beyotime Bio P0015) to make the loading samples. The samples were heated to 100° C. for 10 minutes and cooled to RT and microcentrifuged. 20 μL of samples were loaded onto SDS-PAGE gel (Novex, WG1402BOX) and the gel was run at 80 V for 20 minutes and 120 V for 1.5 hours. The samples were electrotransfer to a NC membrane using wet-transfer method with 250 mA for 2.5 hours. The membrane was blocked with LICOR blocking buffer (LI COR,927-50000) for 1 hour. The membrane was washed three times with TBST(CST #9997S), 5 minutes each. Incubation was performed with primary antibody prepared in blocking buffer with 0.1% Tween-20 (Solarbio, P8220) at 4° C. overnight (Anti-SMARCA2/BRM antibody (ab15597) 1:500; Anti-BRG1 antibody [EPR3912](ab108318) 1:1000; Rabbit anti-Bafl80 antibody [EPR15860](Abcam,ab196022) 1:1000; mouse anti-beta-Actin (8H10D10) (CST #3700) 1:10000). The membrane was washed three times with TBST, 5 minutes each. Incubation with secondary antibody was performed for 1 hour at RT (anti-rabbit IgG (Licor,926-32211) 1:5000; anti-mouse IgG (LI-COR, 926-68070) 1:5000). The membrane was washed three times with 5 minutes each and lastly the LiCOR was read.
The letter codes for SMARCA2/4 degradation potency (DC50) include: A (<1 nM), B (1-10 nM), C (>10-100 nM), and D (>100 nM). The letter codes for the percentage of SMARCA2/4 degradation after 24 hours (Dmax %) include: A (>90% degradation), B (>70-90% degradation), C (50-70% degradation), and D (<50% degradation). The letter codes of SMARCA2/4 selectivity include: A (>500 fold), B (>100-500 fold), C (10-100 fold), and D (<10 fold). Table 8. SMARCA2/4 Selectivity Results

[3] = target: T1, SMARCA2; assay: SMARCA2 Western blot degradation in MV4-11 cells; design: SMARCA2/SMARCA4 protein degradation selectivity in MV4-11 cells; endogenous in cells; host or cells: MV4-11; conditions: for Dmax: MV4-11, MV4-11 cells, read-out: SMARCA2 MSD MV411 degradation 24 h: average Dmax %; for Dmax / DC50 / SMARCA2 MSD MV411 degradation 24 h: average Dmax %: 24 h; for DC50 / Selectivity in MV411 / SMARCA2 MSD MV411 degradation 24 h: average Dmax %: MV4-11 cells; for DC50: read-out: SMARCA2 MSD MV411 degradation 24 h: Mean external-Abs DC50; for Selectivity in MV411: SMARCA2/4 selectivity

T1 sequence (P51531 whole entry): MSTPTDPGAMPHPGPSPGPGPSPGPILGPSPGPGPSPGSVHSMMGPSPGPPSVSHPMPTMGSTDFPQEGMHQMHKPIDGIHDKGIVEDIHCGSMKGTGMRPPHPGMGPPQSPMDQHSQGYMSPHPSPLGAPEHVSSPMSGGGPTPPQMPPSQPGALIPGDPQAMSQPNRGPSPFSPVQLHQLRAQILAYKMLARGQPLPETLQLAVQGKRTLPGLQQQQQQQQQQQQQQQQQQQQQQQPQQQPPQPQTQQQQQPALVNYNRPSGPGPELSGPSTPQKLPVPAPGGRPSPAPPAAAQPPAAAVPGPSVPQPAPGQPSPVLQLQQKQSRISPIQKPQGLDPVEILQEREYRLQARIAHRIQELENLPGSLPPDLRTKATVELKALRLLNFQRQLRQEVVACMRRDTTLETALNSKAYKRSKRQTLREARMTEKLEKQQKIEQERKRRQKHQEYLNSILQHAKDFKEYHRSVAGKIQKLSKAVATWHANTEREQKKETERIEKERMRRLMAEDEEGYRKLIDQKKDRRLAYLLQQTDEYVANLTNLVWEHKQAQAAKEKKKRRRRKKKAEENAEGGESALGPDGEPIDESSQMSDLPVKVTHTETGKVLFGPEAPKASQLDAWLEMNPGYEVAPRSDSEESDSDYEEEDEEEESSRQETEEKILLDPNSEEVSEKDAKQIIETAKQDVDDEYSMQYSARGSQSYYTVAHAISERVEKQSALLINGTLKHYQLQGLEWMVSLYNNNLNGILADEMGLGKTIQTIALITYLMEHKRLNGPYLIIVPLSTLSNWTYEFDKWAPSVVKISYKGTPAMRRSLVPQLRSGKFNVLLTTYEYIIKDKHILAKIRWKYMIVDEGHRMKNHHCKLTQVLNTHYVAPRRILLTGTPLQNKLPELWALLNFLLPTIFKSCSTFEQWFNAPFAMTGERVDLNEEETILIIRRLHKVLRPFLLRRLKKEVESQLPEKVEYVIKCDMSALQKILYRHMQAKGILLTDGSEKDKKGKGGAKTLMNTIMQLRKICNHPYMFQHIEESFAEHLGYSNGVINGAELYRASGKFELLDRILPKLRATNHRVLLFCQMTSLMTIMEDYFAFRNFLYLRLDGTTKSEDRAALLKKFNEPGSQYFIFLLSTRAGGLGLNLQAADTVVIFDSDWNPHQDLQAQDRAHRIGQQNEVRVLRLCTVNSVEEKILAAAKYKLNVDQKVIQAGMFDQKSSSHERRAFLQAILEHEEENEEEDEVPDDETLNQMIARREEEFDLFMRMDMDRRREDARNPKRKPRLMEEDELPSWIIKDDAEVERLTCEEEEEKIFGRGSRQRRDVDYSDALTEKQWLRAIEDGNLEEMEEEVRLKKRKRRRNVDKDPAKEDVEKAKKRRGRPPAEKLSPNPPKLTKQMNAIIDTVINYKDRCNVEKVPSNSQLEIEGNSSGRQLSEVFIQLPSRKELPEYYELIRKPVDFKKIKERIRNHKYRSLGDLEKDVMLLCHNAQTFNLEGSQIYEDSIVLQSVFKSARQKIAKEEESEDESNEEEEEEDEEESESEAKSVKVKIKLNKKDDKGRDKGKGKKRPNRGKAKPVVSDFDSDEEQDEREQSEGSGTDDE
T2 sequence (P51532 whole entry): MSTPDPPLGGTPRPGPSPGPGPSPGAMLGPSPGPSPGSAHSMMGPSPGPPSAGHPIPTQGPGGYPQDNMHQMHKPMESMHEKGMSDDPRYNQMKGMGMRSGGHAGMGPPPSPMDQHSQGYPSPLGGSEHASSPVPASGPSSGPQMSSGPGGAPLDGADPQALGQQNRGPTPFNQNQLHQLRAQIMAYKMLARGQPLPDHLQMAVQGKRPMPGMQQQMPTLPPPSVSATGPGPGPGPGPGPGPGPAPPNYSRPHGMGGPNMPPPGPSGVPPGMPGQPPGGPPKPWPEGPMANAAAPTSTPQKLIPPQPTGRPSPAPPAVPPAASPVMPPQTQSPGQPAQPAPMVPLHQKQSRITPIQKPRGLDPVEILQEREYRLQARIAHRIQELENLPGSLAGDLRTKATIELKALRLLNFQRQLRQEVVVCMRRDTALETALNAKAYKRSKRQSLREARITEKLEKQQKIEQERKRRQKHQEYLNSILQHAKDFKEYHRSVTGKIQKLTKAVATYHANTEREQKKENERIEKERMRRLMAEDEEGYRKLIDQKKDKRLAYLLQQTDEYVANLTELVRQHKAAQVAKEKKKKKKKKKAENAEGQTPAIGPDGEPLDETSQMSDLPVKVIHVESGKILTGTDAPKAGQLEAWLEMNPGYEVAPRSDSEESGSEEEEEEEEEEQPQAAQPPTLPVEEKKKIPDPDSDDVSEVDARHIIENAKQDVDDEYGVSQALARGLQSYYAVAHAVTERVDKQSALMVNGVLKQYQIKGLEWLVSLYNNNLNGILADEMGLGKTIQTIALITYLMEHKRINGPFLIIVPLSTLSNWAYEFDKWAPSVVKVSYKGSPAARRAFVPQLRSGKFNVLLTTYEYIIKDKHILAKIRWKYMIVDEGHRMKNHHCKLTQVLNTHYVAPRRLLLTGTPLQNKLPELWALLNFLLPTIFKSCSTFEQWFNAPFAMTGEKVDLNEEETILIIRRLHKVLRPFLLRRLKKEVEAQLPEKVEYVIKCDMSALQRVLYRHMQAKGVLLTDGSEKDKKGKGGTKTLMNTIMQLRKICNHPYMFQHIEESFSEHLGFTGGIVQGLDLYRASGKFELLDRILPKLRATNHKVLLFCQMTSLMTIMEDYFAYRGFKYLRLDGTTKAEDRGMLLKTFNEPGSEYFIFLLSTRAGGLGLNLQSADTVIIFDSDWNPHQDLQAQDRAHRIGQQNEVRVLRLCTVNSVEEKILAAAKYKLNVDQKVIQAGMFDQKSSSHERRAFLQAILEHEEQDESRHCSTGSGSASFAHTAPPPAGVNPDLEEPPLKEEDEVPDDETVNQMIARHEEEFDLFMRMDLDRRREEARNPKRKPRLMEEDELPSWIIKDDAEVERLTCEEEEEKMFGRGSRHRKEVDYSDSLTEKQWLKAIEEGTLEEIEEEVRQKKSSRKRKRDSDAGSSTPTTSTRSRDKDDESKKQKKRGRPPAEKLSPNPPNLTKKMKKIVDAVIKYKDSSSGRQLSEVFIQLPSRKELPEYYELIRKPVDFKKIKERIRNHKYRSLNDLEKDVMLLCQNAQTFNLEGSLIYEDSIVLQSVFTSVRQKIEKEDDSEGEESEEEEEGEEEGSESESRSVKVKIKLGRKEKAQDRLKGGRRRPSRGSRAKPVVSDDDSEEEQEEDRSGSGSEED

Dmax [1] [%] | DC50 ([1]; A549 cells) [nM] | Dmax [2] [%] | DC50 [2] [nM] | Dmax [3] [%] | DC50 [3] [nM] | Selectivity in MV411 [3] | SMARCA2 MSD A549 degradation 24 h: Average Dmax % ([1]; A549 cells) | SMARCA2 MSD MV411 degradation 24 h: average Dmax % [3] | SMILES
70 to 90 | 10 to 50 | 70 to 90 | 10 to 100 | > 90 | 1 to 10 | C (C (10-100 fold)) |  |  | Cc1ncsc1-c1ccc(CNC(=O)[C@@H]2C[C@@H](O)CN2C(=O)C(c2cc(N3CC4(CCC(N5CCC(c6cnc(N7CCc8[nH]c9nnc(-c%10ccccc%10O)cc9c8[C@@H]7C)nc6)CC5)CC4)C3)no2)C(C)C)cc1 (single isomer, unassigned) [I-9]
> 90 | 50 to 100 |  |  |  | 1 to 10 |  |  | B (B (>70-90% degradation)) | C#Cc1ccc(CNC(=O)[C@@H]2C[C@@H](O)CN2C(=O)[C@@H](NC(=O)[C@H]2CCC3(CC2)C[C@H](N2CCC(c4cnc(N5CCN6c7cc(-c8cccc(F)c8O)nnc7NC[C@H]6C5)nc4)CC2)C3)C(C)(C)C)cc1 (single isomer, unassigned) [I-157]
< 50 | > 100 |  |  | < 50 | > 100 |  |  |  | C#Cc1ccc(CNC(=O)[C@@H]2C[C@@H](O)CN2C(=O)[C@@H](NC(=O)C2CCC3(CC2)CC(N2CCC(c4cnc(N5CCN6c7cc(-c8ccccc8O)nnc7NC[C@H]6C5)nc4)CC2)C3)C2CCNCC2)cc1 (stereo partly drawn) [I-132]

Continued, molecule first:

SMILES | Dmax [1] [%] | DC50 ([1]; A549 cells) [nM] | Dmax [2] [%] | DC50 [2] [nM] | Dmax [3] [%] | DC50 [3] [nM] | Selectivity in MV411 [3] | SMARCA2 MSD A549 degradation 24 h: Average Dmax % ([1]; A549 cells) | SMARCA2 MSD MV411 degradation 24 h: average Dmax % [3]
Cc1ncsc1-c1ccc(CNC(=O)[C@@H]2C[C@@H](O)CN2C(=O)[C@@H](NC(=O)[C@H]2CC3(C2)C[C@H](N2CCC(c4ccnc(N5CCN6c7cc(-c8ccccc8O)nnc7NC[C@H]6C5)n4)CC2)C3)C(C)(C)C)cc1 (single isomer, unassigned) [I-5] | > 90 | 10 to 50 | < 50 | > 100 | > 90 | 1 to 10 | A (A (>500 fold)) |  | 
Cc1ncsc1-c1ccc(CNC(=O)[C@@H]2C[C@@H](O)CN2C(=O)C(c2cc(N3CCC(CCN4CCC(c5cnc(N6CCc7[nH]c8nnc(-c9ccccc9O)cc8c7[C@@H]6C)nc5)CC4)CC3)no2)C(C)C)cc1 (single isomer, unassigned) [I-8] | > 90 | 10 to 50 | 70 to 90 | 10 to 100 | 70 to 90 | 1 to 10 | D (D (<10 fold)) |  | 
C#Cc1ccc(CNC(=O)[C@@H]2C[C@@H](O)CN2C(=O)[C@@H](NC(=O)[C@H]2CCC3(CC2)C[C@H](N2CCC(c4cnc(N5CCN6c7cc(-c8cccc(Cl)c8O)nnc7NC[C@@H]6C5)nc4)CC2)C3)C(C)(C)C)cc1 (single isomer, unassigned) [I-154] |  | > 100 |  |  |  | 10 to 100 |  | A (A (>90% degradation)) | C (C (50-70% degradation))
